Test results: US5198445A, “Composition and use of substituted 3-thio-2-propynenitriles as industrial antimicrobials” (The Dow Chemical Company, priority 1992, dated 1993)
Values after ≈ are worked out from the molar mass of the structure shown. Read-outs that look alike come from different tables or passages of the source.

Tests used:
Bacillus subtilis (Bs) = assay: MIC in nutrient agar, Bacillus subtilis; format: cell-based, Bacillus subtilis ATCC 8473; conditions: Bacillus subtilis
Experimental: (§1) The minimum inhibitory concentration (MIC) for the compounds listed in Table I is determined for 9 bacteria, using nutrient agar, and 7 yeast and fungi, using malt yeast agar. A one percent solution of the test compound is prepared in a mixture of acetone and water. Nutrient agar is prepared at pH 6.8, representing a neutral medium, and at pH 8.2, representing an alkaline medium. The nutrient agars are prepared by adding 23 g of nutrient agar to one-liter of deionized water. In addition, the alkaline medium is prepared by adjusting a 0.04M solution of N-[tris-(hydroxymethyl)methyl]-glycine buffered deionized water with concentrated sodium hydroxide to a pH of […]. Malt yeast agar is prepared by adding 3 g yeast extract and 45 g malt agar per liter of deionized water. The specific agar is dispensed in 30 ml aliquots into 25×200 mm test tubes, capped and autoclaved for 15 minutes at 115° C. The test tubes containing the agar are cooled in a water bath until the temperature of the agar is 48° C. Then, an appropriate amount of the one percent solution of the test compound is added (except in the controls where no compound is added) to the respective test tubes so that the final concentrations are 500, 250, 100, 50, 25, 10, 5, 2.5, 1.0 and zero parts per million of the test compound in the agar, thus having a known concentration of test compound dispersed therein. The contents of the test tubes are then transferred to respective petri plates. After drying for 24 hours, the petri plates containing nutrient agar are inoculated with bacteria and those containing malt yeast agar are inoculated with yeast and fungi.
(§2) The inoculation with bacteria is accomplished by using the following procedure. Twenty-four hour-cultures of each of the bacteria are prepared by incubating the respective bacteria in tubes containing nutrient broth for 24 hours at 30° C. in a shaker. Dilutions of each of the 24 hour-cultures are made so that nine separate suspensions (one for each of the nine test bacteria) are made, each containing 10^8 colony forming units (CFU) per ml of suspension of a particular bacteria. Aliquots of 0.3 ml of each of the bacterial suspensions are used to fill the individual wells of Steer's Replicator. For each microbial suspension, 0.3 ml was used to fill three wells (i.e., three wells of 0.3 ml each) so that for the nine different bacteria, 27 wells are filled. The Steer's Replicator is then used to inoculate both the neutral and alkaline pH nutrient agar petri plates.
(§3) The inoculated petri plates are incubated at 30° C. for 48 hours and then read to determine if the test compound which is incorporated into the agar prevented growth of the respective bacteria.
(§4) Table II lists the bacteria, yeast and fungi used in the MIC test described above along with their respective American Type Culture Collection (ATCC) identification numbers.
(§5) The following MIC and MEC antimicrobial tests, whose results are shown in Tables XIII-XVII, are performed using the same methods as described hereinabove.

[1] = test system: Enterobacter aerogenes (Ea); assay: MIC in nutrient agar, Enterobacter aerogenes; format: cell-based, Enterobacter aerogenes ATCC 13048; conditions: Klebsiella aerogenes
Experimental: as §1, §2, §3, §4, §5

Escherichia coli (Ec) = assay: MIC in nutrient agar, Escherichia coli; format: cell-based, Escherichia coli ATCC 11229; conditions: Escherichia coli
Experimental: as §1, §2, §3, §4, §5

[2] = test system: Klebsiella pneumoniae (Kp); assay: MIC in nutrient agar, Klebsiella pneumoniae; format: cell-based, Klebsiella pneumoniae ATCC 8308
Experimental: as §1, §2, §3, §4, §5

Proteus vulgaris (Pv) = assay: MIC in nutrient agar, Proteus vulgaris; format: cell-based, Proteus vulgaris ATCC 881
Experimental: as §1, §2, §3, §4, §5

[3] = test system: Pseudomonas aeruginosa (PRD-10); assay: MIC in nutrient agar, Pseudomonas aeruginosa PRD-10; format: cell-based, Pseudomonas aeruginosa ATCC 15442; conditions: Pseudomonas aeruginosa
Experimental: as §1, §2, §3, §4, §5

[4] = test system: Pseudomonas aeruginosa (Pa); assay: MIC in nutrient agar, Pseudomonas aeruginosa; format: cell-based, Pseudomonas aeruginosa ATCC 10145
Experimental: as §1, §2, §3, §4, §5

[5] = test system: Salmonella choleraesuis (Sc); assay: MIC in nutrient agar, Salmonella choleraesuis; format: cell-based, Salmonella choleraesuis ATCC 10708; conditions: Salmonella enterica, CHOLERAESUIS
Experimental: as §1, §2, §3, §4, §5

[6] = test system: Staphylococcus aureus (Sa); assay: MIC in nutrient agar, Staphylococcus aureus; format: cell-based, Staphylococcus aureus ATCC 6538; conditions: Staphylococcus aureus
Experimental: as §1, §2, §3, §4, §5

Aspergillus niger (An) = assay: MIC in malt yeast agar, Aspergillus niger; format: cell-based, Aspergillus niger ATCC 16404; conditions: read-out: Minimum Inhibitory Concentration, An
Experimental: as §1
(§6) The inoculation with the yeast and fungi is accomplished as follows. Cultures of yeast and fungi are incubated for seven days on malt yeast agar at 30° C. These cultures are used to prepare suspensions by the following procedure. A suspension of each organism is prepared by adding 10 ml of sterile saline and 10 microliters of octylphenoxy polyethoxy ethanol (TRITON® X-100, a trademark of Rohm & Haas Company) to the agar slant of yeast or fungi. The sterile saline/octylphenoxy polyethoxy ethanol solution is then agitated with a sterile swab to suspend the microorganism grown on the slant. Each resulting suspension is diluted into sterile saline (1 part suspension: 9 parts sterile saline). Aliquots of these dilutions are placed in individual wells of Steer's Replicator and petri plates inoculated as previously described. The petri plates are incubated at 30° C. and read after 48 hours for yeast and 72 hours for fungi.
as §4, §5

Candida albicans (Ca) = assay: MIC in malt yeast agar, Candida albicans; format: cell-based, Candida albicans ATCC 10231; conditions: read-out: Minimum Inhibitory Concentration, Ca
Experimental: as §1, §6, §4, §5

[7] = test system: Penicillium chrysogenum (Pc); assay: MIC in malt yeast agar, Penicillium chrysogenum; format: cell-based, Penicillium chrysogenum ATCC 9480; conditions: read-out: Minimum Inhibitory Concentration, Pc
Experimental: as §1, §6, §4, §5

[8] = test system: Saccharomyces cerevisiae (Sc); assay: MIC in malt yeast agar, Saccharomyces cerevisiae; format: cell-based, Saccharomyces cerevisiae ATCC 4105; conditions: read-out: Minimum Inhibitory Concentration, Sc
Experimental: as §1, §6, §4, §5

Trichoderma viride (Tv) = assay: MIC in malt yeast agar, Trichoderma viride; format: cell-based, Trichoderma viride ATCC 8678; conditions: read-out: Minimum Inhibitory Concentration, Tv
Experimental: as §1, §6, §4, §5

[9] = test system: Aureobasidium pullulan (Ap); assay: MIC in malt yeast agar, Aureobasidium pullulan; format: cell-based, Aureobasidium pullulan ATCC 16622; conditions: read-out: Minimum Inhibitory Concentration, Ap
Experimental: as §1, §6, §4, §5

Fusarium oxysporum (Fo) = assay: MIC in malt yeast agar, Fusarium oxysporum; format: cell-based, Fusarium oxysporum ATCC 48112; conditions: read-out: Minimum Inhibitory Concentration, Fo
Experimental: as §1, §6, §4, §5

Bacteria Species = assay: MIC test in bacteria species, comparison over the organisms of Table XIV; format: cell-based, bacteria listed in Table II; conditions: pH 8.2
Experimental: The minimum inhibitory concentration (MIC) for the compounds listed in Table I is determined for 9 bacteria, using nutrient agar, and 7 yeast and fungi, using malt yeast agar. A one percent solution of the test compound is prepared in a mixture of acetone and water. Nutrient agar is prepared at pH 6.8, representing a neutral medium, and at pH 8.2, representing an alkaline medium. The nutrient agars are prepared by adding 23 g of nutrient agar to one-liter of deionized water. In addition, the alkaline medium is prepared by adjusting a 0.04M solution of N-[tris-(hydroxymethyl)methyl]-glycine buffered deionized water with concentrated sodium hydroxide to a pH of […]. Malt yeast agar is prepared by adding 3 g yeast extract and 45 g malt agar per liter of deionized water. The specific agar is dispensed in 30 ml aliquots into 25×200 mm test tubes, capped and autoclaved for 15 minutes at 115° C. The test tubes containing the agar are cooled in a water bath until the temperature of the agar is 48° C. […]
The inoculated petri plates are incubated at 30° C. for 48 hours and then read to determine if the test compound which is incorporated into the agar prevented growth of the respective bacteria. […]

[10] = Degradation of Z isomer to 3-methylthio-2-propynenitrile; format: physicochemical
Excerpt: It has also been discovered that the Z isomer of an appropriately-substituted 2-chloro-3-thio-2-propenenitrile precursor may degrade in situ to a like-substituted 3-thio-2-propynenitrile.

**Q.** Which results are given for `CS/C=C(\Cl)C#N` [Compound I, Z isomer of 2-chloro-3-(methylthio)-2-propenenitrile]?
**A.** MIC (Bacillus subtilis (Bs); pH 6.8, read-out: Minimum Inhibitory Concentration, Bs): 50 µg/mL (≈ 374 µM); MIC (Bacillus subtilis (Bs); pH 8.2, read-out: Minimum Inhibitory Concentration, Bs): 10 µg/mL (≈ 74.8 µM); MIC ([1]; pH 6.8, read-out: Minimum Inhibitory Concentration, Ea): 50 µg/mL (≈ 374 µM); MIC ([1]; pH 8.2, read-out: Minimum Inhibitory Concentration, Ea): 10 µg/mL (≈ 74.8 µM); MIC (Escherichia coli (Ec); pH 6.8, read-out: Minimum Inhibitory Concentration, Ec): 50 µg/mL (≈ 374 µM); MIC (Escherichia coli (Ec); pH 8.2, read-out: Minimum Inhibitory Concentration, Ec): 10 µg/mL (≈ 74.8 µM); MIC ([2]; pH 6.8, read-out: Minimum Inhibitory Concentration, Kp): 50 µg/mL (≈ 374 µM); MIC ([2]; pH 8.2, read-out: Minimum Inhibitory Concentration, Kp): 10 µg/mL (≈ 74.8 µM); MIC (Proteus vulgaris (Pv); pH 6.8, read-out: Minimum Inhibitory Concentration, Pv): 50 µg/mL (≈ 374 µM); MIC (Proteus vulgaris (Pv); pH 8.2, read-out: Minimum Inhibitory Concentration, Pv): 5 µg/mL (≈ 37.4 µM); MIC ([3]; pH 6.8, read-out: Minimum Inhibitory Concentration, PRD): 50 µg/mL (≈ 374 µM); MIC ([3]; pH 8.2, read-out: Minimum Inhibitory Concentration, PRD): 10 µg/mL (≈ 74.8 µM); MIC ([4]; pH 6.8, read-out: Minimum Inhibitory Concentration, Pa): 50 µg/mL (≈ 374 µM); MIC ([4]; pH 8.2, read-out: Minimum Inhibitory Concentration, Pa): 10 µg/mL (≈ 74.8 µM); MIC ([5]; pH 6.8, read-out: Minimum Inhibitory Concentration, Sc): 50 µg/mL (≈ 374 µM); MIC ([5]; pH 8.2, read-out: Minimum Inhibitory Concentration, Sc): 10 µg/mL (≈ 74.8 µM); MIC ([6]; pH 6.8, read-out: Minimum Inhibitory Concentration, Sa): 50 µg/mL (≈ 374 µM); MIC ([6]; pH 8.2, read-out: Minimum Inhibitory Concentration, Sa): 10 µg/mL (≈ 74.8 µM); MIC (Aspergillus niger (An)): 50 µg/mL (≈ 374 µM); MIC (Candida albicans (Ca)): 100 µg/mL (≈ 748 µM); MIC [7]: 50 µg/mL (≈ 374 µM); MIC [8]: 100 µg/mL (≈ 748 µM); MIC (Trichoderma viride (Tv)): 50 µg/mL (≈ 374 µM); MIC [9]: 50 µg/mL (≈ 374 µM); MIC (Fusarium oxysporum (Fo)): 100 µg/mL (≈ 748 µM); antimicrobial activity compared with 3-methylthio-2-propynenitrile (Compound A) (Bacteria Species): essentially equivalent; antimicrobial activity relative to the E isomer (Compound H) (Bacteria Species): 25-50 times greater; half-life for the degradation of the Z isomer to 3-methylthio-2-propynenitrile ([10]; pH 7): approximately two; half-life for the degradation of the Z isomer to 3-methylthio-2-propynenitrile ([10]; pH 9): approximately two
